Test results from ChEMBL document CHEMBL1152860, “Synthesis and antiproliferative activity of 3-amino-N-phenyl-1H-indazole-1-carboxamides” (2009).
Activity calls are given as the source filed them. No cut-off for these calls is given here.

What was measured:
K562 [1] = test: Growth inhibition of human K562 cells after 48 hrs by SRB assay; assay type: functional; conditions: K562, 48 h
K562 [2] = test: Growth inhibition of drug-resistant human K562 cells after 48 hrs by SRB assay; assay type: functional; conditions: K562, 48 h
[3] = Growth inhibition of human Hs 578T cells after 48 hrs by SRB assay; assay type: functional
RPMI-8226 = test: Growth inhibition of human RPMI8226 cells after 48 hrs by SRB assay; assay type: functional; conditions: RPMI-8226, 48 h
MCF7 = test: Growth inhibition of human MCF7 cells after 48 hrs by SRB assay; assay type: functional; conditions: MCF7, 48 h
NCI-H322M = test: Growth inhibition of human NCI-H322M cells after 48 hrs by SRB assay; assay type: functional
SW-620 = test: Growth inhibition of human SW620 cells after 48 hrs by SRB assay; assay type: functional; conditions: SW-620, 48 h
A549 = test: Growth inhibition of human A549 cells after 48 hrs by SRB assay; assay type: functional; conditions: A549, 48 h
HOP-92 = test: Growth inhibition of human HOP92 cells after 48 hrs by SRB assay; assay type: functional; conditions: HOP-92, 48 h
DU-145 = test: Growth inhibition of human DU145 cells after 48 hrs by SRB assay; assay type: functional; conditions: DU-145, 48 h
HCT-15 = test: Growth inhibition of human HCT15 cells after 48 hrs by SRB assay; assay type: functional; conditions: HCT-15, 48 h
NCI/ADR-RES = test: Growth inhibition of human NCI/ADR-RES cells after 48 hrs by SRB assay; assay type: functional
SK-MEL-28 = test: Growth inhibition of human SK-MEL-28 cells after 48 hrs by SRB assay; assay type: functional; conditions: SK-MEL-28, 48 h
SF-268 = test: Growth inhibition of human SF268 cells after 48 hrs by SRB assay; assay type: functional; conditions: SF-268, 48 h
SR = test: Growth inhibition of human SR cells after 48 hrs by SRB assay; assay type: functional
SN12C = test: Growth inhibition of human SN12C cells after 48 hrs by SRB assay; assay type: functional
SF-539 = test: Growth inhibition of human SF539 cells after 48 hrs by SRB assay; assay type: functional; conditions: SF-539, 48 h
RXF 393 = test: Growth inhibition of human […] cells after 48 hrs by SRB assay; assay type: functional; conditions: RXF 393, 48 h
OVCAR-3 = test: Growth inhibition of human OVCAR-3 cells after 48 hrs by SRB assay; assay type: functional; conditions: OVCAR-3, 48 h
CAKI-1 = test: Growth inhibition of human Caki1 cells after 48 hrs by SRB assay; assay type: functional; conditions: CAKI-1, 48 h
Malme-3M = test: Growth inhibition of human MALME-3M cells after 48 hrs by SRB assay; assay type: functional
MDA-MB-435 = test: Growth inhibition of human MDA-MB-435 cells after 48 hrs by SRB assay; assay type: functional; conditions: MDA-MB-435, 48 h
OVCAR-4 = test: Growth inhibition of human OVCAR4 cells after 48 hrs by SRB assay; assay type: functional; conditions: OVCAR-4, 48 h
NCI-H460 = test: Growth inhibition of human NCI-H460 cells after 48 hrs by SRB assay; assay type: functional; conditions: NCI-H460, 48 h
HT-29 = test: Growth inhibition of human HT-29 cells after 48 hrs by SRB assay; assay type: functional; conditions: HT-29, 48 h
BT-549 = test: Growth inhibition of human BT549 cells after 48 hrs by SRB assay; assay type: functional; conditions: BT-549, 48 h
HCC 2998 = test: Growth inhibition of human HCC2998 cells after 48 hrs by SRB assay; assay type: functional; conditions: HCC 2998, 48 h
LOX IMVI = test: Growth inhibition of human LOXIMVI cells after 48 hrs by SRB assay; assay type: functional
EKVX = test: Growth inhibition of human EKVX cells after 48 hrs by SRB assay; assay type: functional
OVCAR-8 = test: Growth inhibition of human OVCAR8 cells after 48 hrs by SRB assay; assay type: functional; conditions: OVCAR-8, 48 h
HL-60(TB) = test: Growth inhibition of human HL-60(TB) cells after 48 hrs by SRB assay; assay type: functional; conditions: HL-60, 48 h
MDA-MB-231 = test: Growth inhibition of human MDA-MB-231 cells after 48 hrs by SRB assay; assay type: functional; conditions: MDA-MB-231, 48 h
KM12 = test: Growth inhibition of human KM12 cells after 48 hrs by SRB assay; assay type: functional; conditions: KM12, 48 h
NCI-H226 = test: Growth inhibition of human NCI-H226 cells after 48 hrs by SRB assay; assay type: functional; conditions: NCI-H226, 48 h
NCI-H23 = test: Growth inhibition of human NCI-H23 cells after 48 hrs by SRB assay; assay type: functional; conditions: NCI-H23, 48 h
SK-OV-3 = test: Growth inhibition of human SKOV3 cells after 48 hrs by SRB assay; assay type: functional; conditions: SK-OV-3, 48 h
UACC-257 = test: Growth inhibition of human UACC257 cells after 48 hrs by SRB assay; assay type: functional; conditions: UACC-257, 48 h
ACHN = test: Growth inhibition of human ACHN cells after 48 hrs by SRB assay; assay type: functional
A498 = test: Growth inhibition of human A498 cells after 48 hrs by SRB assay; assay type: functional; conditions: A498, 48 h
UO-31 = test: Growth inhibition of human UO31 cells after 48 hrs by SRB assay; assay type: functional; conditions: UO-31, 48 h
IGROV-1 = test: Growth inhibition of human IGROV1 cells after 48 hrs by SRB assay; assay type: functional; conditions: IGROV-1, 48 h
SNB-19 = test: Growth inhibition of human SNB19 cells after 48 hrs by SRB assay; assay type: functional; conditions: SNB-19, 48 h
PC-3 = test: Growth inhibition of human PC3 cells after 48 hrs by SRB assay; assay type: functional; conditions: PC-3, 48 h
U-251 = test: Growth inhibition of human U251 cells after 48 hrs by SRB assay; assay type: functional; conditions: U-251, 48 h
COLO 205 = test: Growth inhibition of human COLO205 cells after 48 hrs by SRB assay; assay type: functional; conditions: COLO 205, 48 h
MOLT-4 = test: Growth inhibition of human MOLT4 cells after 48 hrs by SRB assay; assay type: functional; conditions: MOLT-4, 48 h
HCT-116 = test: Growth inhibition of human HCT116 cells after 48 hrs by SRB assay; assay type: functional; conditions: HCT-116, 48 h
M14 = test: Growth inhibition of human M14 cells after 48 hrs by SRB assay; assay type: functional; conditions: M14, 48 h
K562 [4] = test: Cell cycle arrest in human K562 cells assessed as accumulation at S phase at 42.7 uM after 24 hrs using propidium iodide staining by flow cytometry; assay type: functional, cell-based
SF-295 = test: Growth inhibition of human SF295 cells after 48 hrs by SRB assay; assay type: functional; conditions: SF-295, 48 h
HOP-62 = test: Growth inhibition of human HOP62 cells after 48 hrs by SRB assay; assay type: functional; conditions: HOP-62, 48 h
K562 [5] = test: Cell cycle arrest in human K562 cells assessed as accumulation at G2/M phase at 42.7 uM after 24 hrs using propidium iodide staining by flow cytometry; assay type: functional, cell-based
SNB-75 = test: Growth inhibition of human SNB75 cells after 48 hrs by SRB assay; assay type: functional; conditions: SNB-75, 48 h
TK-10 = test: Growth inhibition of human TK10 cells after 48 hrs by SRB assay; assay type: functional; conditions: TK-10, 48 h
UACC-62 = test: Growth inhibition of human UACC62 cells after 48 hrs by SRB assay; assay type: functional; conditions: UACC-62, 48 h
SK-MEL-5 = test: Growth inhibition of human SK-MEL-5 cells after 48 hrs by SRB assay; assay type: functional; conditions: SK-MEL-5, 48 h
OVCAR-5 = test: Growth inhibition of human OVCAR5 cells after 48 hrs by SRB assay; assay type: functional; conditions: OVCAR-5, 48 h
786-0 = test: Growth inhibition of human 786-0 cells after 48 hrs by SRB assay; assay type: functional; conditions: 786-0, 48 h
SK-MEL-2 = test: Growth inhibition of human SK-MEL-2 cells after 48 hrs by SRB assay; assay type: functional; conditions: SK-MEL-2, 48 h
T47D = test: Growth inhibition of human T47D cells after 48 hrs by SRB assay; assay type: functional
NCI-H522 = test: Growth inhibition of human NCI-H522 cells after 48 hrs by SRB assay; assay type: functional; conditions: NCI-H522, 48 h

Structure (SMILES): CCc1nc2cc(Cl)ccc2c(=O)n1-c1n[nH]c2ccccc12
- GI50 (K562 [1]): 10.7 µM
- GI50 (K562 [2]): 11.7 µM

Structure (SMILES): O=C(Nc1ccccc1OC(F)(F)F)Nc1n[nH]c2ccccc12
- GI50 [3]: 19.4 µM
- GI50 (RPMI-8226): 52 µM
- GI50 (MCF7): 1.75 µM
- GI50 (NCI-H322M): 81.6 µM
- GI50 (K562 [1]): 42.7 µM
- GI50 (SW-620): 36.7 µM
- GI50 (A549): 15.7 µM
- GI50 (HOP-92): 12.9 µM
- GI50 (DU-145): 51.7 µM
- GI50 (HCT-15): 36.2 µM
- GI50 (NCI/ADR-RES): 44.2 µM
- GI50 (SK-MEL-28): 42.2 µM
- GI50 (SF-268): 16.2 µM
- GI50 (SR): 0.0489 µM
- TGI (SR): 24 µM
- CC50 (SR; read-out: LC50 (the source's name)): > 100 µM
- GI50 (SN12C): 72.5 µM
- GI50 (SF-539): 30.5 µM
- GI50 (RXF 393): 24.3 µM
- GI50 (OVCAR-3): 90.8 µM
- GI50 (CAKI-1): 31 µM
- GI50 (Malme-3M): 76.9 µM
- GI50 (MDA-MB-435): 51.5 µM
- GI50 (OVCAR-4): 37.7 µM
- GI50 (NCI-H460): 15 µM
- GI50 (HT-29): 26.1 µM
- GI50 (BT-549): 76.4 µM
- GI50 (HCC 2998): 55.9 µM
- GI50 (LOX IMVI): 22.5 µM
- GI50 (EKVX): 48.2 µM
- GI50 (OVCAR-8): 29.6 µM
- GI50 (HL-60(TB)): 17.9 µM
- GI50 (MDA-MB-231): 17.9 µM
- GI50 (KM12): 23.4 µM
- GI50 (NCI-H226): 26.1 µM
- GI50 (NCI-H23): 50 µM
- GI50 (SK-OV-3): > 100 µM
- GI50 (UACC-257): 47.2 µM
- GI50 (ACHN): 31.1 µM
- GI50 (A498): > 100 µM
- GI50 (UO-31): 17.4 µM
- GI50 (IGROV-1): 4.59 µM
- GI50 (SNB-19): 78.3 µM
- GI50 (PC-3): 31.4 µM
- GI50 (U-251): 31.1 µM
- GI50 (COLO 205): 71.8 µM
- GI50 (MOLT-4): 59.1 µM
- GI50 (HCT-116): 16.2 µM
- GI50 (M14): 22.5 µM
- Activity (K562 [4]): Active
- GI50 (SF-295): 39 µM
- GI50 (HOP-62): 19.6 µM
- Activity (K562 [5]): Active
- GI50 (SNB-75): 17.5 µM
- GI50 (TK-10): 37.9 µM
- GI50 (UACC-62): 31.7 µM
- GI50 (SK-MEL-5): 28.7 µM
- GI50 (OVCAR-5): 34.3 µM
- GI50 (786-0): 38.7 µM
- GI50 (SK-MEL-2): 81.4 µM
- GI50 (T47D): 37.5 µM
- GI50 (NCI-H522): 33.9 µM
